We go through 16 compounds from PubChem BioAssay (NCI).

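Results reflect a 48-hour exposure of cells in 96-well plates to compound at five concentrations. Abbreviation: GI50, concentration required for 50% inhibition of growth. TGI denotes the concentration required for complete inhibition of growth.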

Test systems include SF-268 CNS; MDA-N; MOLT-4 leukemia; UACC-62 melanoma; HCT-15 colon; NCI-H460 lung; SF-539 CNS; DU-145 prostate; HL-60(TB) leukemia; RXF 393 renal.
Holding throughout (assay): NCI tumour cell line growth inhibition, 48 h

For `COc1ccccc1N1C(=O)/C(=C\c2ccccc2)SC1c1cc(OC)c(OC)c(OC)c1` (stereo not drawn), the TGI in the test with SF-268 CNS was greater than 100 µM; with MDA-N, 48.6 µM; in the test with MOLT-4 leukemia, greater than 100 µM; in the test on UACC-62 melanoma, greater than 100 µM; in the test with HCT-15 colon, greater than 100 µM.
Consider `O=[N+]([O-])c1ccc(N/N=C\c2ccc(O)cc2O)nc1`, for which the GI50 in the test on SF-268 CNS was 1.21 µM; with NCI-H460 lung it was 0.797 µM; in the test with SF-539 CNS, 3.07 µM; with DU-145 prostate, 1.77 µM; in the test with HCT-15 colon it was 0.828 µM. In addition, the TGI with SF-268 CNS, in the test with NCI-H460 lung, in the test with SF-539 CNS, in the test on DU-145 prostate and in the test on HCT-15 colon was greater than 100 µM in each case.
Take `O=C(O)Cc1ccc(-n2nnc3c(=O)[nH][nH]c(=O)c32)cc1`: the TGI in the test with HL-60(TB) leukemia, in the test with MDA-N, with MOLT-4 leukemia, in the test on NCI-H460 lung, in the test on DU-145 prostate and with HCT-15 colon was greater than 100 µM each time.
`O=C(Nc1ccccn1)c1cc2c(cc1Cl)Sc1nccn1S2(=O)=O`: the TGI is greater than 100 µM in the test with SF-268 CNS; 74.3 µM with HL-60(TB) leukemia; greater than 100 µM in the test on MDA-N; greater than 100 µM in the test on MOLT-4 leukemia; greater than 100 µM in the test with UACC-62 melanoma; greater than 100 µM in the test on NCI-H460 lung. For the same compound, the TGI was 93.9 µM with RXF 393 renal and greater than 100 µM in the test on HCT-15 colon.
On to `COC(=O)CC(c1ccccc1)C(C#N)(OP1(=O)OC(c2ccccc2)C(C)N1C)c1ccccc1` (stereo not drawn), for which the TGI is greater than 100 µM with SF-268 CNS; 72.6 µM with HL-60(TB) leukemia; greater than 100 µM in the test with MDA-N; 64.6 µM in the test on MOLT-4 leukemia; greater than 100 µM in the test with UACC-62 melanoma; greater than 100 µM in the test on NCI-H460 lung. For the same compound, the TGI in the test with RXF 393 renal, in the test on DU-145 prostate and with HCT-15 colon was greater than 100 µM in each case.
On to `O=C1C=C(NCCc2ccc(O)cc2)C(=O)C=C1NCCc1ccc(O)cc1`, for which the TGI was greater than 100 µM with SF-268 CNS; 71.2 µM with HL-60(TB) leukemia; greater than 100 µM in the test with MOLT-4 leukemia; greater than 100 µM with UACC-62 melanoma; greater than 100 µM in the test on NCI-H460 lung; greater than 100 µM with RXF 393 renal. Also, the TGI in the test on DU-145 prostate and in the test on HCT-15 colon was greater than 100 µM in each case.
With `CC(C)[Si](CC1=CCCCC12C(=O)N(COCC[Si](C)(C)C)c1ccccc12)(C(C)C)C(C)C` (stereo not drawn), the TGI in the test on SF-268 CNS was greater than 100 µM; in the test with MDA-N it was greater than 100 µM; in the test on MOLT-4 leukemia it was greater than 100 µM; in the test with UACC-62 melanoma, greater than 100 µM; in the test with NCI-H460 lung, greater than 100 µM; in the test with RXF 393 renal, 54.2 µM. The TGI in the test with SF-539 CNS, in the test on DU-145 prostate and in the test on HCT-15 colon was greater than 100 µM throughout.
As to `COc1ccc(C(CC(=O)c2ccc(O)cc2)C(C(=O)c2ccc(O)cc2)C(c2ccc(OC)cc2)C2C(=O)NC(=S)NC2=O)cc1` (stereo not drawn), the TGI is 35.3 µM in the test on SF-268 CNS; 85.6 µM with HL-60(TB) leukemia; 41.5 µM with MDA-N; greater than 100 µM in the test on MOLT-4 leukemia; 36.1 µM in the test on UACC-62 melanoma; 39.5 µM with NCI-H460 lung. For the same compound, the results for the TGI with DU-145 prostate and in the test with HCT-15 colon were 33.8 µM and 45.3 µM, respectively.
`COc1ccccc1NC(=O)C(=O)C(C#N)CC(C)(C)C=O` (stereo not drawn): the TGI with SF-268 CNS, in the test on HL-60(TB) leukemia, in the test with MDA-N, in the test on MOLT-4 leukemia, in the test on UACC-62 melanoma and in the test with NCI-H460 lung was greater than 100 µM in each case. For the same compound, the TGI in the test with RXF 393 renal, with SF-539 CNS and in the test on HCT-15 colon was greater than 100 µM in each case.
As for `COc1cc2oc(=O)cc(C)c2c(OC)c1OC`, the TGI with SF-268 CNS, with MDA-N, in the test with MOLT-4 leukemia, in the test with UACC-62 melanoma, in the test with DU-145 prostate and with HCT-15 colon was greater than 100 µM each time.
Turning to `O=CC1C(=O)Nc2nc3ccccc3n2C1c1ccccc1` (stereo not drawn), the TGI was 27 µM with SF-268 CNS; greater than 100 µM in the test on HL-60(TB) leukemia; 5.73 µM with MOLT-4 leukemia; 31.9 µM with UACC-62 melanoma; 82.8 µM with NCI-H460 lung; 16 µM in the test with RXF 393 renal. The TGI in the test on SF-539 CNS was determined as 44.6 µM; with DU-145 prostate, 25.3 µM; in the test on HCT-15 colon it was 37 µM.
As for `COc1ccc(-c2cc(-c3ccncc3)nc(N)c2-c2ccc(F)cc2)cc1`, the TGI was greater than 100 µM in the test with SF-268 CNS; greater than 100 µM in the test with MOLT-4 leukemia; greater than 100 µM in the test with UACC-62 melanoma; 57.6 µM in the test on NCI-H460 lung; 68.6 µM with RXF 393 renal; 46.8 µM in the test on SF-539 CNS. In the test with HCT-15 colon, the TGI is greater than 100 µM.
`COc1ccc(/C=C2\NC(=S)N(CN3CCOCC3)C2=O)cc1`: the TGI in the test on SF-268 CNS, with MDA-N, with MOLT-4 leukemia, in the test with UACC-62 melanoma, in the test with DU-145 prostate and in the test on HCT-15 colon was greater than 100 µM throughout.
As to `CC(=O)Nc1ccc2cc3c(nc2n1)c1cccnc1n3S(=O)(=O)c1ccccc1`, the TGI in the test with SF-268 CNS, with HL-60(TB) leukemia, with MDA-N, with MOLT-4 leukemia, in the test on UACC-62 melanoma and in the test with NCI-H460 lung was greater than 100 µM throughout. The TGI with RXF 393 renal and in the test with HCT-15 colon was greater than 100 µM in each case.
As for `C[C@H](N)C(=O)Nc1ccc(-c2nc3ccccc3s2)cc1Cl`, the TGI with SF-268 CNS came to 43.7 µM; with MDA-N it was 26.3 µM; in the test with MOLT-4 leukemia it was 40 µM; in the test on UACC-62 melanoma, 31.1 µM; in the test on NCI-H460 lung it was 26.2 µM; in the test on RXF 393 renal, 30.2 µM. For the same compound, the values for the TGI in the test with DU-145 prostate and in the test on HCT-15 colon were 32.1 µM and 62.4 µM, respectively.
For the compound `CC(C)N=C(NC#N)NS(=O)(=O)c1cnccc1NC1CCCCCCC1`, the TGI in the test with SF-268 CNS, in the test with MDA-N, in the test with MOLT-4 leukemia, with UACC-62 melanoma, in the test with RXF 393 renal and in the test with DU-145 prostate was greater than 100 µM in each case. Also, in the test with HCT-15 colon, the TGI is greater than 100 µM.
